Measurements: PMC4326489, “Efficacy and pharmacokinetic evaluation of a novel anti-malarial compound (NP046) in a mouse model” (Malaria Journal, 2015)
Converted amounts (≈) assume the structure as drawn.

Assays:
[1] = test system: Plasmodium berghei transfected with green fluorescence protein (strain ANKA); assay: In vivo efficacy (four-day dosing) in P. berghei-infected mice, % parasitaemia by flow cytometry; design: species or system Plasmodium berghei in male C57BL/6 mice; settings: 10 mg/kg oral, day five post-infection
Protocol: Plasmodium berghei transfected with green fluorescence protein (strain ANKA), a chloroquine-sensitive strain, was stored in liquid nitrogen. Parasites were thawed and administered intraperitoneally (IP) to infect two donor mice a week before the experiment commenced. […] Finally, each of the test animals received 200 μl of the P. berghei-infected RBCs (1×10^7 per 200 μl PBS) IP to infect them with the parasite. There were three animals per dose group, and each of them received 200 μl of NP046 in water orally and intravenously (volume adjusted relative to the weight of mouse) at their respective dose concentration as shown below:
The test compound was administered to the animals once a day for four days. […] Blood samples were collected via tail bleeding in tubes containing PBS on day 5, and % parasitaemia was determined with FACSCalibur™ using the software CellQuestPro [5].
Finally, the percentage parasite growth inhibition was calculated using the following equation [6]: [drawing 1]

[2] = Kinetic solubility (HPLC-UV); type: physicochemical; settings: aqueous buffer, kinetic from dmso stock, PBS pH 2.0
Protocol: The concentration of the test compound (x) in PBS samples was calculated from the peak area (y) in its UV chromatogram by extrapolation from the three-point calibration line, using the equation y = ax + b; where a = slope and b = intercept.
Summary of the assay method for the determination kinetic solubility:
PBS was prepared and its pH adjusted to 2.0 and 7.4
primary stock solutions of the test compounds and controls (reserpine and hydrocortisone) in DMSO at 10 mM were prepared
Samples were briefly vortex mixed
samples were incubated for 2 hours while mixing in an incubator with orbital shaker at 200 rpm
samples were centrifuged at 3500 rpm for 15 minutes at 22 °C
the supernatant of the standards were transferred from the clear 96-well plate into an opaque, round bottom 96-well analysis plate, while the aqueous samples were filtered using a vacuum manifold through a multi-screen filter plate (MSRLN 0450, 0.4 µM), into the same opaque, round bottom 96-well plate
samples were analysed using HPLC-UV method by injecting the STDs in duplicate, and the samples in singlet.

solubility at 2 h [2] [µM]	SMILES	% growth inhibition ([1]; relative to negative control (placebo)) [%]	% parasitaemia ([1]; once a day for four days, mean ± S.E.M) [%]
–	CCN(CC)CCCC(C)Nc1ccnc2cc(Cl)ccc12 (stereo not drawn) [Positive control, chloroquine phosphate, reference compound]	100	0.01 ± 0.0
193 (≈ 117 µg/mL)	COC(=O)[C@H]1[C@H]2C[C@@H]3c4[nH]c5cc(OC)ccc5c4CCN3C[C@H]2C[C@@H](OC(=O)c2cc(OC)c(OC)c(OC)c2)[C@@H]1OC [Reserpine, reference compound]	–	–
